# Target: T1, GCase (GBA) in human fibroblast cell line GM10915 harboring the L444P GBA mutation (Homo sapiens, UniProt P04062, L483P)
# T1 construct: Human fibroblast cell line GM10915 harboring the L444P GBA mutation; host or cells: GM10915 human fibroblasts
# T1 sequence (P04062 40-536 L483P): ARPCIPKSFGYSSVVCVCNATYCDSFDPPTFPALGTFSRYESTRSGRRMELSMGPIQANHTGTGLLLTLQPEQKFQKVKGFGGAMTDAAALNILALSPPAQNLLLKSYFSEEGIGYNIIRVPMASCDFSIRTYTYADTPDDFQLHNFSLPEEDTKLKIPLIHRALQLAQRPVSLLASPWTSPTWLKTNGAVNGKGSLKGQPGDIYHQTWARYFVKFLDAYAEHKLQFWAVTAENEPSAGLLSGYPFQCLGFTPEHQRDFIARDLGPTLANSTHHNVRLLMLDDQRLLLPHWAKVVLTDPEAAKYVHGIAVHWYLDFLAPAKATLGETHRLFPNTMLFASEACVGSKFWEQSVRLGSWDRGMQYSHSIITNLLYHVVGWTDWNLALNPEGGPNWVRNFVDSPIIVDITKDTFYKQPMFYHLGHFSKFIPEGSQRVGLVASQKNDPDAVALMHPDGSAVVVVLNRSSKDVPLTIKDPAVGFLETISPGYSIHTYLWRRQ
# Assay: GCase activity assay (4-MUG substrate, normalised to crystal violet staining) in L444P GBA fibroblasts
# Type: cell-based
# Conditions: 5 days exposure; for GBA EC1.5: concentration giving 150% GCase activity (1.5-fold induction), 8-point dose range; for Emax: maximum percent GCase activity relative to untreated cells in the dose range tested
# Description: Human fibroblast cell line GM10915 harboring the L444P GBA mutation was obtained from Coriell Biorepositories.
# All chemicals (Glacial acetic acid, Glycine, 4-Methylumbelliferyl b-D-glucopyranoside (4-MUG), Sodium acetate trihydrate, Sodium hydroxide, Crystal violet, SDS, Ammonium hydroxide) were obtained from Sigma-Aldrich (Denmark) Compounds tested for GCase activity were dissolved in H2O or DMSO.
# The GM10915 cell line was cultured under standard cell culture conditions (37° C. and 5% CO2) in complete DMEM medium supplemented with nonessential amino acids (NEAA), 1% Pen-Strep and 12% FCS. Cells were seeded at a density of 10^4 cells/well in 100 μL complete medium in one black 96-well plate for glucosylceramidase (GCase) activity measurement and in one clear 96-well plate for crystal violet staining to correct for cell density. Crystal violet staining is performed to obtain quantitative information about the relative density of cells adhering to multi-wells plates.
# The assay was adapted from Sawkar et al (2002) and briefly described in the following. The day after seeding of cells, the medium was replaced with fresh medium containing the compounds to be tested. Compounds were tested in duplicate and in an 8-point diluted dose range to obtain a dose response. Cells were exposed with compounds for five days. Fresh compound was added every 2-3 days. PBS was included to define the basal level of GCase activity.
# Cells were washed three times with 200 μL PBS per well and 50 μL of 2.5 mM 4-MUG buffer (4-MUG dissolved in 0.2 M acetate buffer pH 4.0) was added and the cells were incubated at 37° C., 5% CO2 for 23 hours. The reaction was stopped by adding 150 μL 0.2 M glycine buffer (pH 10.8). Fluorescence was measured with a Varioskan® Flash reader (Thermo Scientific) at an excitation/emission setting of 365/445 nm.
# Cells were treated with compounds in a parallel setup identical to the setup to test for GCase activity. At the end of compound treatment, cells were washed once with 200 μL PBS per well and 50 μL 0.1% w/v crystal violet (in H2O) was added. Following 10 min. of incubation, the crystal violet solution was removed, and the cells were washed three times with 200 μL PBS and 100 μL 1% SDS was added to solubilize the stain. The plate was agitated on an orbital shaker for 10-30 min. Absorbance (A) is measured at […] using a Varioskan® Flash reader (Thermo Scientific).
# The fluorescence signal (F) derived from the GCase measurement is normalized to the absorbance signal (A) derived from the crystal violet staining. The percent GCase activity resulting from compound treatment is calculated relative to the basal activity obtained from untreated cells.
# Maximal effect of compounds (Emax) is determined from the dose response effects as the maximum “Percent GCase activity” achieved in the dose range tested.
SMILES,GBA EC1.5 [µM],Emax [%]
"CC1(C2=NOCC(CN3CCCCC3)O2)CCNC1 (racemic) [compound 465, rac-3-(3-methylpyrrolidin-3-yl)-5-(piperidin-1-ylmethyl)-5,6-dihydro-1,4,2-dioxazine]",10,283
"CC(C)(C1=NOCC(CN2CCCCC2)O1)C1CCCNC1 (racemic) [compound 473, rac-5-(piperidin-1-ylmethyl)-3-(2-(piperidin-3-yl)propan-2-yl)-5,6-dihydro-1,4,2-dioxazine di-2,2,2-trifluoroacetate]",9,181
"CC1(C2=NOCC(CN3CCCCC3)O2)CCCNC1 (racemic) [compound 476, rac-3-(3-methylpiperidin-3-yl)-5-(piperidin-1-ylmethyl)-5,6-dihydro-1,4,2-dioxazine]",6,253
"CC(C)(C1=NOCC(CN2CCCCC2)O1)C1CCNCC1 (racemic) [compound 477, rac-5-(piperidin-1-ylmethyl)-3-(2-(piperidin-4-yl)propan-2-yl)-5,6-dihydro-1,4,2-dioxazine di-2,2,2-trifluoroacetate]",15,181
"C1CCN(CC2CON=C(CC3CCNCC3)O2)CC1 (racemic) [compound 479, rac-5-(piperidin-1-ylmethyl)-3-(piperidin-4-ylmethyl)-5,6-dihydro-1,4,2-dioxazine]",35,184
"CC1(C2=NOCC(CN3CCCCC3)O2)CNCCO1 (racemic) [compound 480, rac-3-(2-methylmorpholin-2-yl)-5-(piperidin-1-ylmethyl)-5,6-dihydro-1,4,2-dioxazine]",16,273
"C1CCN(CC2CON=C([C@@]34CN[C@@H](CO3)C4)O2)CC1 (mixture of isomers) [compound 490, rac-(1R,4R)-1-(5-(piperidin-1-ylmethyl)-5,6-dihydro-1,4,2-dioxazin-3-yl)-2-oxa-5-azabicyclo[2.2.1]heptane]",11,215
"CC(C)(C1=NOCC(CN2CCCCC2)O1)C1CCNC1 (racemic) [compound 491, rac-5-(piperidin-1-ylmethyl)-3-(2-(pyrrolidin-3-yl)propan-2-yl)-5,6-dihydro-1,4,2-dioxazine]",28,230
"CC1(C2=NOCC(CN3CCNC(C(F)(F)F)CC3)O2)CCNCC1 (racemic) [compound 500, rac-3-(4-methylpiperidin-4-yl)-5-((5-(trifluoromethyl)-1,4-diazepan-1-yl)methyl)-5,6-dihydro-1,4,2-dioxazine]",14,166
"C1CCN(CC2CON=C(C3CCNC3)O2)CC1 (racemic) [compound 508, rac-5-(piperidin-1-ylmethyl)-3-(pyrrolidin-3-yl)-5,6-dihydro-1,4,2-dioxazine]",17,226
"C1CCN(CC2CON=C(C34CCCNCC3C4)O2)CC1 (racemic) [compound 519, rac-3-(3-azabicyclo[5.1.0]octan-7-yl)-5-(piperidin-1-ylmethyl)-5,6-dihydro-1,4,2-dioxazine]",40,159
"C1CCN(CC2CON=C(C3(C4CCNCC4)CC3)O2)CC1 (racemic) [compound 521, rac-5-(piperidin-1-ylmethyl)-3-(1-(piperidin-4-yl)cyclopropyl)-5,6-dihydro-1,4,2-dioxazine]",19,336
"C1CCN(CC2CON=C(C34CNC(C3)C4)O2)CC1 (racemic) [compound 527, rac-3-(2-azabicyclo[2.1.1]hexan-4-yl)-5-(piperidin-1-ylmethyl)-5,6-dihydro-1,4,2-dioxazine]",26,187
"Fc1cncc(CC2(C3=NOCC(CN4CCCCC4)O3)CCNCC2)c1 (racemic) [compound 528, rac-3-(4-((5-fluoropyridin-3-yl)methyl)piperidin-4-yl)-5-(piperidin-1-ylmethyl)-5,6-dihydro-1,4,2-dioxazine]",6,181
"CN1CCCC(C)(C2=NOCC(CN3CCCCC3)O2)C1 (racemic) [compound 529, rac-3-(1,3-dimethylpiperidin-3-yl)-5-(piperidin-1-ylmethyl)-5,6-dihydro-1,4,2-dioxazine]",11,222
"CC1ON=C(C2(C)CCNCC2)OC1CN1CCCCC1 (racemic) [compound 531, rac-6-methyl-3-(4-methylpiperidin-4-yl)-5-(piperidin-1-ylmethyl)-5,6-dihydro-1,4,2-dioxazine]",7,282
"CN1CCC(C2=NOCC(CN3CCCCC3)O2)C1 (racemic) [compound 546, rac-3-(1-methylpyrrolidin-3-yl)-5-(piperidin-1-ylmethyl)-5,6-dihydro-1,4,2-dioxazine]",18,253
"C1CCN(CC2CON=C(C3C4CNC3C4)O2)CC1 (racemic) [compound 548, rac-3-(2-azabicyclo[2.1.1]hexan-5-yl)-5-(piperidin-1-ylmethyl)-5,6-dihydro-1,4,2-dioxazine]",21,281
"CC1(C2=NOCC(CN3CCCCC3)O2)CNC1 (racemic) [compound 549, rac-3-(3-methylazetidin-3-yl)-5-(piperidin-1-ylmethyl)-5,6-dihydro-1,4,2-dioxazine]",36,232
"c1cncc(CC2(C3=NOCC(CN4CCCCC4)O3)CCNCC2)c1 (racemic) [compound 550, rac-5-(piperidin-1-ylmethyl)-3-(4-(pyridin-3-ylmethyl)piperidin-4-yl)-5,6-dihydro-1,4,2-dioxazine]",27,159
"C1CCN(CC2CON=C(C34CCCN(CC3)C4)O2)CC1 (racemic) [compound 553, rac-3-(1-azabicyclo[3.2.1]octan-5-yl)-5-(piperidin-1-ylmethyl)-5,6-dihydro-1,4,2-dioxazine]",4,341
"C1CCN(CC2CON=C(CC3CCCNC3)O2)CC1 (racemic) [compound 554, rac-5-(piperidin-1-ylmethyl)-3-(piperidin-3-ylmethyl)-5,6-dihydro-1,4,2-dioxazine]",11,271
"CC1NCCC1C1=NOCC(CN2CCCCC2)O1 (racemic) [compound 559, rac-3-(2-methylpyrrolidin-3-yl)-5-(piperidin-1-ylmethyl)-5,6-dihydro-1,4,2-dioxazine]",16,251
"CC1CC(C2=NOCC(CN3CCCCC3)O2)CN1 (racemic) [compound 560, rac-3-(5-methylpyrrolidin-3-yl)-5-(piperidin-1-ylmethyl)-5,6-dihydro-1,4,2-dioxazine]",8,244
"Cc1ncccc1CC1(C2=NOCC(CN3CCCCC3)O2)CCNCC1 (racemic) [compound 561, rac-3-(4-((2-methylpyridin-3-yl)methyl)piperidin-4-yl)-5-(piperidin-1-ylmethyl)-5,6-dihydro-1,4,2-dioxazine]",5,184
"COC1CNC(C)(C2=NOCC(CN3CCCCC3)O2)C1 (racemic) [compound 565, rac-3-(4-methoxy-2-methylpyrrolidin-2-yl)-5-(piperidin-1-ylmethyl)-5,6-dihydro-1,4,2-dioxazine]",37,168

# Reference: patent US20240390383A1, “DIOXAZINES AND THEIR USE IN TREATMENT OF GBA-RELATED DISEASES” (ZEVRA DENMARK A/S, priority 2021, published 2024)
